These results are taken from patent publication US20070112075A1 (Forest Laboratories, Inc., priority 2005, published 2007).

Counter-ions that a name gives are not always drawn.

Series [1] has as its system monoamine oxidase. Particulars: cited from earlier work.
The subject of series [2] is norepinephrine uptake. As to conditions: cited from earlier work.
Series [3] can be described thus: Stability of escitalopram oxalate in commercial formulations and in contact with bupropion hydrochloride. Type of series: physicochemical. From the text:
Preferably, the bupropion and escitalopram in the oral dosage form are physically separated. The inventors have discovered that conventional formulations of escitalopram hydrobromide and escitalopram oxalate unexpectedly degrade under storage conditions. […] The escitalopram and bupropion may be separated by having separate discrete zones of the dosage form (such as different layers) for each component. Alternatively, the dosage form may include a plurality of escitalopram tablets or beads and a plurality of bupropion tablets or beads, where one or both of the escitalopram tablets/beads and bupropion tablets/beads are coated.

On to `CC(NC(C)(C)C)C(=O)c1cccc(Cl)c1` (racemic) [bupropion, (±)-1-(3-chlorophenyl)-2-[(1,1-dimethylethyl)amino]-1-propanone], for which, in series [1], the “inhibition of monoamine oxidase” value was “does not inhibit”. For the same compound, the “blockade of norepinephrine uptake” value in series [2] is listed as “weak blocker”.

Consider `CN(C)CCC[C@@]1(c2ccc(F)cc2)OCc2cc(C#N)ccc21` [escitalopram oxalate], for which the “time stable in commercial formulations” value in series [3] (commercial formulations) is “about 12 months”. Moreover, in series [3] (stored in intimate contact with bupropion hydrochloride), the “degradation rate compared with commercial formulations” value was “degrades significantly more rapidly”.
